Experimental data: US7785875B2, “Polynucleotide encoding HCV epitopes which can bind to various HLA supertypes, immunogenic composition comprising same and method of inducing an HCV-specific immune response using same” (priority 2004, dated 2010)

System: PBMCs derived from HCV-infected patients
Assay: Ex vivo IFN-γ ELISPOT assay
Assay type: cell-based, human
Settings: for responsiveness of positive reaction: positive = 30 or more SFCs per 2×10^5 PBMCs; for number of HLA types the epitope was positive to: of 9 HLA types found in the patients (A2, A24, A26, A3, B7, B15, B27, B44, B51)

| Substance | responsiveness of positive reaction (HLA-A2 type patients) [%] | responsiveness of positive reaction (HLA-A3 type patients) [%] | responsiveness of positive reaction (HLA-A24 type patients) [%] | responsiveness of positive reaction (HLA-A26 type patients) [%] | Number of patients showing positive response/Number of patients having specific MHC type (HLA-A molecule A2) | Number of patients showing positive response/Number of patients having specific MHC type (HLA-A molecule A3) | Number of patients showing positive response/Number of patients having specific MHC type (HLA-A molecule A24) | Number of patients showing positive response/Number of patients having specific MHC type (HLA-A molecule A26) | responsiveness of positive reaction (HLA-B7 type patients) [%] | responsiveness of positive reaction (HLA-B15 type patients) [%] | responsiveness of positive reaction (HLA-B27 type patients) [%] | responsiveness of positive reaction (HLA-B44 type patients) [%] | responsiveness of positive reaction (HLA-B51 type patients) [%] | Number of patients showing positive response/Number of patients having specific MHC type (HLA-B molecule B7) | Number of patients showing positive response/Number of patients having specific MHC type (HLA-B molecule B15) | Number of patients showing positive response/Number of patients having specific MHC type (HLA-B molecule B27) | Number of patients showing positive response/Number of patients having specific MHC type (HLA-B molecule B44) | Number of patients showing positive response/Number of patients having specific MHC type (HLA-B molecule B51) | number of HLA types the epitope was positive to |
| --- | --- | --- | --- | --- | --- | --- | --- | --- | --- | --- | --- | --- | --- | --- | --- | --- | --- | --- | --- |
| C1: HCV epitope peptide of 9 amino acids, NS3, region 1338 (TAGARLVVL) [Peptide C1] | 11.5 | 10.0 | 4.18 | 0 | 3/26 | 3/30 | 1/24 | 0/1 | 11.7 | 0 | 0 | 22.2 | 20.0 | 2/17 | 0/9 | 0/4 | 2/9 | 2/10 | 6 |
| C4: HCV epitope peptide of 9 amino acids, NS2, region 894 (AILGPLMVF) [Peptide C4] | 26.3 | 23.5 | 29.1 | 0 | 7/26 | 7/30 | 7/24 | 0/1 | 29.1 | 44.4 | 0 | 22.2 | 50.0 | 5/17 | 4/9 | 0/4 | 2/9 | 5/10 | 7 |
| L1: HCV epitope peptide of 9 amino acids, Core, region 118 (NLGKVIDTL) [Peptide L1] | 11.5 | 10.0 | 8.3 | 0 | 3/26 | 3/30 | 2/24 | 0/1 | 11.7 | 0 | 0 | 33.3 | 10.0 | 2/17 | 0/9 | 0/4 | 3/9 | 1/10 | 6 |
| L2: HCV epitope peptide of 9 amino acids, E2, region 632 (YVGGVEHRL) [Peptide L2] | 15.3 | 13.3 | 12.5 | 0 | 4/26 | 4/30 | 3/24 | 0/1 | 5.8 | 22.2 | 25.0 | 11.1 | 20.0 | 1/17 | 2/9 | 1/4 | 1/9 | 2/10 | 8 |
| L6: HCV epitope peptide of 9 amino acids, E2, region 628 (KVRMYVGGV) [Peptide L6] | 15.3 | 10.0 | 8.3 | 0 | 4/26 | 3/30 | 2/24 | 0/1 | 11.7 | 11.1 | 0 | 11.1 | 30.0 | 2/17 | 1/9 | 0/4 | 1/9 | 3/10 | 7 |
| L7: HCV epitope peptide of 9 amino acids, NS2, region 883 (ELIFDITKL) [Peptide L7] | 19.2 | 10.0 | 12.5 | 0 | 5/26 | 3/30 | 3/24 | 0/1 | 17.6 | 22.2 | 25.0 | 11.1 | 20.0 | 3/17 | 2/9 | 1/4 | 1/9 | 2/10 | 8 |
